Experimental data as given in patent US20230219965A1 (KSQ Therapeutics, Inc., priority 2020, published 2023).
Like-named read-outs stand apart in the source and are kept apart here.

How the values were obtained:
[1] = biological target: USP1/UAF1 enzyme (Homo sapiens, UniProt O94782); test: USP1/UAF1 deubiquitination assay (ubiquitin-rhodamine 110 substrate); type: biochemical; conditions: read-out: USP1 IC50 (Ub-Rho)
Procedure, shortened: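 0.05 nM USP1/UAF1 was preincubated 10 min with compounds (dose response from 10 μM) in 50 mM Tris-HCl pH 7.8, 0.5 mM EDTA, 0.01% BSA, 1 mM DTT, 0.01% Tween-20. 150 nM ubiquitin-rhodamine 110 started the reaction, read kinetically 30 min at Ex480/Em540; IC50 by four-parameter fit versus no-enzyme and DMSO controls.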

[2] = test system: Ub-PCNA levels in the nucleus of ES2 cells (USP1 activity); test: ES2 Ub-PCNA immunofluorescence (IF) assay; type: cell-based; conditions: ES2 cells, 3 hours, Ub-PCNA immunofluorescence, read-out: USP1 IC50 (Ub-PCNA)
Procedure, shortened: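 Cells plated overnight, then compound-treated for 3 h at 37° C (0.3% DMSO final), methanol-fixed and stained with anti-Ub-PCNA plus DAPI. Per-nucleus Ub-PCNA intensity imaged; cells above the 95% cutoff of untreated wells counted as positive, and percent positive cells used to derive AC50.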

[3] = ADME solubility determination in PBS at pH 2.0 and pH 7.4; type: physicochemical; conditions: for solubility at 24 h: phosphate buffered saline, 25 °C, thermodynamic from solid; for Solubility at pH 2.0 (μM) / Solubility at pH 7.4 (μM): 24 hours
Procedure, shortened: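 Dried 10 mM DMSO stock residues taken up in PBS pH 7.4 or pH 2.0, shaken 24 h at 25° C. After centrifugation, supernatant quantified by LC-MS/MS against a standard of known concentration, with a dilution factor applied.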

[4] = Liver microsomal metabolic stability, rat liver microsomes (RLM); conditions: 1 μM compound, 1 mg/mL microsomes, NADPH; for half-life at 1 μM: rat, liver microsomes, t1/2 (min) in RLM
Method: (§1) Samples were prepared by adding 222.5 μL of a master solution (100 mM phosphate buffer and 1 mg/mL liver microsomes (HLM or RLM)) and 25 μL of a 10 mM NADPH solution to incubation plates, which were then warmed for 10 min. Each compound was separately dissolved in DMSO to prepare 10 mM stock solutions, which were then diluted to 100 μM with acetonitrile. A reaction was started by adding 2.5 μL of the 100 μM solution of each compound to separate incubation plates such that the final concentration of for each compound in each plate was 1 μM.
(§2) 25 μL aliquots of each sample were taken at 0.5, 5, 10, 15, 20 and 30 minutes, and the reaction was stopped by adding 5 volumes of cold acetonitrile with IS (100 nM alprazolam, 200 nM caffeine and 100 nM tolbutamide). The samples were then centrifuged at 3,220 G for 30 minutes, and 100 μL of the supernatant fluid was mixed with 100 μL of ultra-pure H2O.
(§3) The samples were then analyzed by LC-MS/MS. Peak areas were determined from extracted ion chromatograms. Slope values (k) were determined by linear regression of the natural logarithm of the remaining percentage of the compound vs. incubation time curve. The in vitro half-life (in vitro t1/2) was determined from the slope value using the following equation:

[5] = Liver microsomal metabolic stability, human liver microsomes (HLM); conditions: for half-life at 1 μM: human, liver microsomes; for t1/2 (min) in HLM: human liver microsomes, 1 μM compound, 1 mg/mL microsomes, NADPH
Method: as §1, §2, §3

[6] = pH 2, aqueous buffer, PBS pH 2.0, 25° C., read-out: Solubility at pH 2.0
[7] = pH 7.4, aqueous buffer, PBS pH 7.4, 25° C., read-out: Solubility at pH 7.4

Chain of USP1/UAF1 enzyme (O94782 whole entry): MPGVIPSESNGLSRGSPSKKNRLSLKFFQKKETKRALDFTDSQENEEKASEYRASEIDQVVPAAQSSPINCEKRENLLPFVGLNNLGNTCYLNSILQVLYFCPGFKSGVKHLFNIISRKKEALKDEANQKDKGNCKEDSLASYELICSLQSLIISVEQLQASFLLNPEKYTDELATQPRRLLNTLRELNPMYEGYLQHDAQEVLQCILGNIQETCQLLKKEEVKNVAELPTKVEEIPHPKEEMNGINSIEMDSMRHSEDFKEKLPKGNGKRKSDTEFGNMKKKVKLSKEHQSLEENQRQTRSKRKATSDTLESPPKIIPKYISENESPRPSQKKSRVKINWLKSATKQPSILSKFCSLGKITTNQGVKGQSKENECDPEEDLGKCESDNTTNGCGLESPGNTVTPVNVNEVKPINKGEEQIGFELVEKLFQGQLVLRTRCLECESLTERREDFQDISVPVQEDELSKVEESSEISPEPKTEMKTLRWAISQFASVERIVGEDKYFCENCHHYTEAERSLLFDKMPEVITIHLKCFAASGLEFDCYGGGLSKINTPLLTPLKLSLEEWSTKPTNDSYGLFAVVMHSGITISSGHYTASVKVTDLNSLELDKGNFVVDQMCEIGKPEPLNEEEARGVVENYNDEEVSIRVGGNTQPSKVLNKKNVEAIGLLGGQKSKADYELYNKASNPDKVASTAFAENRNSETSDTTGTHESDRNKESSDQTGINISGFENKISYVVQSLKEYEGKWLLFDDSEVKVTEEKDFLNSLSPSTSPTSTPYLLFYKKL
Chain of USP1/UAF1 enzyme (Q8TAF3 whole entry partner): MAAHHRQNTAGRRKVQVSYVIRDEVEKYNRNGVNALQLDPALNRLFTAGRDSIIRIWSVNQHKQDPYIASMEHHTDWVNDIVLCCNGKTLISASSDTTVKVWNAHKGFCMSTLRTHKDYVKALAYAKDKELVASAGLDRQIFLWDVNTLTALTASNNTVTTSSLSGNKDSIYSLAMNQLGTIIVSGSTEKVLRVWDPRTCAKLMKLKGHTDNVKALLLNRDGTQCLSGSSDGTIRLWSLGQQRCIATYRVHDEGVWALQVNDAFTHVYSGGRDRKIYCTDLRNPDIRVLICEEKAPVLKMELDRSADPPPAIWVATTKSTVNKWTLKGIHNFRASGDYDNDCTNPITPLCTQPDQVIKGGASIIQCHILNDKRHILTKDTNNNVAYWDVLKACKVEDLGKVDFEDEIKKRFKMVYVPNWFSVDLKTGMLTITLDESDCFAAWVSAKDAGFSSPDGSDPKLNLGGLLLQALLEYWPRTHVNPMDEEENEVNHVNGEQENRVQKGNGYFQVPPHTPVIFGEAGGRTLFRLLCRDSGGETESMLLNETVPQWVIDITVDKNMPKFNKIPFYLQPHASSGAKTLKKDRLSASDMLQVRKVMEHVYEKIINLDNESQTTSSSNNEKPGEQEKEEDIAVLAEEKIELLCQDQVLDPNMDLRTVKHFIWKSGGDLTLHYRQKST

Row | IC50 [1] [µM] | IC50 ([2]; Homo sapiens, ES-2) [µM] | solubility at 24 h [3, 6] [µM] | solubility at 24 h [3, 7] [µM] | half-life at 1 μM [4] [min] | half-life at 1 μM [5] [min] | IC50 [2] [µM] | Solubility at pH 2.0 (μM) ([3]; PBS pH 2.0, 25° C.) | Solubility at pH 7.4 (μM) ([3]; PBS pH 7.4, 25° C.) | t1/2 (min) in RLM [4] | t1/2 (min) in HLM [5] | SMILES
1 | < 0.1 | < 0.1 | < 10 | < 10 | < 25 | < 25 | – | – | – | – | – | CCn1cc(C(F)(F)F)nc1-c1ccc([C@@H](C)N2C(=O)CCn3nc(-c4c(Cl)cnn4C(C)C)nc32)cc1 [Example 194]
2 | 0.1 to 0.5 | < 0.1 | ≥ 10 | ≥ 10 | > 25 | > 25 | – | – | – | – | – | COc1ncnc(C2CC2)c1-c1nc2n(n1)CCC(=O)N2Cc1ccc(-c2nc(C(F)(F)F)cn2C(C)CF)cc1 (stereo not drawn) [Example 195]
3 | 0.1 to 0.5 | < 0.1 | ≥ 10 | ≥ 10 | > 25 | < 25 | – | – | – | – | – | COc1ncnc(C2CC2)c1-c1nc2n(n1)CCC(=O)N2[C@@H](C)c1ccc(-c2nc(C(F)(F)F)cn2C)c(F)c1 [Example 196]
4 | < 0.1 | < 0.1 | ≥ 10 | ≥ 10 | > 25 | > 25 | – | – | – | – | – | COc1ncnc(C2CC2)c1-c1nc2n(n1)CCC(=O)N2[C@H](C)c1ccc(-c2nc(C(F)(F)F)cn2C)c(F)c1 [Example 197]
5 | 0.1 to 0.5 | < 0.1 | ≥ 10 | ≥ 10 | > 25 | > 25 | – | – | – | – | – | COc1ncnc(C2CC2)c1-c1nc2n(n1)CCC(=O)N2[C@@H](C)c1ccc(-c2nc(C(F)(F)F)cn2C2CC2)cc1 [Example 200]
6 | < 0.1 | < 0.1 | ≥ 10 | ≥ 10 | > 25 | > 25 | – | – | – | – | – | COc1ncnc(C2CC2)c1-c1nc2n(n1)CCC(=O)N2[C@H](C)c1ccc(-c2nc(C(F)(F)F)cn2C2CC2)cc1 [Example 201]
7 | 0.1 to 0.5 | 0.1 to 0.5 | ≥ 10 | ≥ 10 | > 25 | > 25 | – | – | – | – | – | COc1ncnc(C2CC2)c1-c1nc2n(n1)CCC(=O)N2[C@@H](C)c1ccc(-n2nc(C(F)(F)F)cc2C)c(F)c1 [Example 203]
8 | < 0.1 | < 0.1 | ≥ 10 | ≥ 10 | > 25 | > 25 | – | – | – | – | – | COc1ncnc(C2CC2)c1-c1nc2n(n1)CCC(=O)N2[C@H](C)c1ccc(-n2nc(C(F)(F)F)cc2C)c(F)c1 [Example 204]
9 | < 0.1 | < 0.1 | ≥ 10 | < 10 | > 25 | > 25 | – | – | – | – | – | COc1ncnc(C2CC2)c1-c1nc2n(n1)CCC(=O)N2[C@H](C)c1ccc(-c2nc(C(F)(F)F)c(Br)n2C)cc1 [Example 206]
10 | < 0.1 | < 0.1 | ≥ 10 | ≥ 10 | > 25 | > 25 | – | – | – | – | – | COc1ncnc(C2CC2)c1-c1nc2n(n1)CCC(=O)N2Cc1ccc(-c2nc(C(F)(F)F)cn2C(C)C)c(F)c1OC [Example 210]
11 | < 0.1 | < 0.1 | ≥ 10 | < 10 | < 25 | > 25 | – | – | – | – | – | CCn1cc(C(F)(F)F)nc1-c1ccc([C@H](C)N2C(=O)CCn3nc(-c4c(OC)ncnc4C4CC4)nc32)cc1Cl [Example 211]
12 | < 0.1 | – | – | – | – | – | < 0.1 | ++ (“++” indicates 10 μM or greater) | ++ (“++” indicates 10 μM or greater) | ++ (“++” indicates 25 minutes greater) | ++ (“++” indicates 25 minutes greater) | CCn1cc(C(F)(F)F)nc1-c1ccc([C@H](C)N2C(=O)CCn3nc(-c4c(OC)ncnc4C4CC4)nc32)cc1Cl [Example 212]
13 | < 0.1 | 0.1 to 0.5 | < 10 | < 10 | > 25 | > 25 | – | – | – | – | – | COc1nccc(C2CC2)c1-c1nc2n(n1)CCC(=O)N2Cc1ccc(-c2nc(C(F)(F)F)cn2C(C)C)c(F)c1 [Example 213]
14 | < 0.1 | 0.1 to 0.5 | < 10 | < 10 | > 25 | > 25 | – | – | – | – | – | COc1c(CN2C(=O)CCn3nc(-c4c(Cl)cnn4C(C)C)nc32)ccc(-c2nc(C(F)(F)F)cn2C(C)C)c1F [Example 216]
15 | < 0.1 | < 0.1 | ≥ 10 | ≥ 10 | > 25 | > 25 | – | – | – | – | – | CCn1cc(C(F)(F)F)nc1-c1ccc(CN2C(=O)CCn3nc(-c4c(OC)ncnc4C4CC4)nc32)c(OC)c1F [Example 217]
16 | < 0.1 | < 0.1 | ≥ 10 | ≥ 10 | < 25 | < 25 | – | – | – | – | – | Cc1cnn(C(C)C)c1-c1nc2n(n1)CCCN2Cc1ccc(-c2nc(C(F)(F)F)cn2C)cc1 [Example 221, 2-(1-isopropyl-4-methyl-1H-pyrazol-5-yl)-4-(4-(1-methyl-4-(trifluoromethyl)-1H-imidazol-2-yl)benzyl)-4,5,6,7-tetrahydro-[1,2,4]triazolo[1,5-α]pyrimidine]
17 | < 0.1 | < 0.1 | ≥ 10 | < 10 | < 25 | < 25 | – | – | – | – | – | Cc1cnn(C(C)C)c1-c1nc2n(n1)CCCN2Cc1ccc(-c2nc(C(F)(F)F)cn2C(C)C)cc1 [Example 222, 4-(4-(1-isopropyl-4-(trifluoromethyl)-1H-imidazol-2-yl)benzyl)-2-(1-isopropyl-4-methyl-1H-pyrazol-5-yl)-4,5,6,7-tetrahydro-[1,2,4]triazolo[1,5-a]pyrimidine]
18 | 0.1 to 0.5 | 0.1 to 0.5 | < 10 | < 10 | > 25 | > 25 | – | – | – | – | – | CC(C)n1ncc(Cl)c1-c1cc2n(n1)CC(C)(O)C(=O)N2Cc1ccc(-c2nc(C(F)(F)F)cn2C)cc1 (stereo not drawn) [Example 232, 2-(4-chloro-1-isopropyl-1H-pyrazol-5-yl)-6-hydroxy-6-methyl-4-(4-(1-methyl-4-(trifluoromethyl)-1H-imidazol-2-yl)benzyl)-6,7-dihydropyrazolo[1,5-α]pyrimidin-5(4H)-one]
19 | < 0.1 | – | – | – | – | – | 0.1 to 0.5 | ++ (“++” indicates 10 μM or greater) | + (“+” indicates less than 10 μM) | ++ (“++” indicates 25 minutes greater) | ++ (“++” indicates 25 minutes greater) | CCn1cc(C(F)(F)F)nc1-c1ccc(CN2C(=O)C(N)Cn3nc(-c4c(Cl)cnn4C(C)C)cc32)cc1 (stereo not drawn) [Example 233, 6-amino-2-(4-chloro-1-isopropyl-1H-pyrazol-5-yl)-4-(4-(1-ethyl-4-(trifluoromethyl)-1H-imidazol-2-yl)benzyl)-6,7-dihydropyrazolo[1,5-α]pyrimidin-5(4H)-one]
20 | < 0.1 | 0.1 to 0.5 | ≥ 10 | < 10 | < 25 | < 25 | – | – | – | – | – | CCn1cc(C(F)(F)F)nc1-c1ccc(CN2C(=O)C(N(C)C)Cn3nc(-c4c(Cl)cnn4C(C)C)cc32)cc1 (stereo not drawn) [Example 235, 2-(4-chloro-1-isopropyl-1H-pyrazol-5-yl)-6-(dimethylamino)-4-(4-(1-ethyl-4-(trifluoromethyl)-1H-imidazol-2-yl)benzyl)-6,7-dihydropyrazolo[1,5-α]pyrimidin-5(4H)-one]
21 | 0.1 to 0.5 | > 0.5 | ≥ 10 | < 10 | < 25 | < 25 | – | – | – | – | – | CCn1cc(C(F)(F)F)nc1-c1ccc(CN2C(=O)C(NC)Cn3nc(-c4c(Cl)cnn4C(C)C)cc32)cc1 (stereo not drawn) [Example 236, 2-(4-chloro-1-isopropyl-1H-pyrazol-5-yl)-4-(4-(1-ethyl-4-(trifluoromethyl)-1H-imidazol-2-yl)benzyl)-6-(methylamino)-6,7-dihydropyrazolo[1,5-α]pyrimidin-5(4H)-one]
22 | < 0.1 | < 0.1 | < 10 | < 10 | < 25 | > 25 | – | – | – | – | – | CCn1cc(C(F)(F)F)nc1-c1ccc(NC2CCCn3nc(-c4c(Cl)cnn4C(C)C)cc32)cc1 (stereo not drawn) [Example 237, 2-(4-chloro-1-isopropyl-1H-pyrazol-5-yl)-N-(4-(1-ethyl-4-(trifluoromethyl)-1H-imidazol-2-yl)phenyl)-4,5,6,7-tetrahydropyrazolo[1,5-α]pyridin-4-amine]
